The text below walks through data of US7476691B2, “Sulfamate benzothiophene derivatives as steroid sulfatase inhibitors” (Laboratoire Theramex, priority 2003, dated 2009).

One series deals with prepubescent female rats. Put plainly: Residual estrogenic activity in vivo (uterotrophic assay).
For a further series, the target named is T1, estrone sulfatase (Rattus norvegicus, UniProt P15589).
T1 construct: uteri were thawed, weighed and homogenized; from tissue; host or cells: uterus of animals dosed orally (ex vivo homogenate supernatant)
T1 sequence (P15589 20-577): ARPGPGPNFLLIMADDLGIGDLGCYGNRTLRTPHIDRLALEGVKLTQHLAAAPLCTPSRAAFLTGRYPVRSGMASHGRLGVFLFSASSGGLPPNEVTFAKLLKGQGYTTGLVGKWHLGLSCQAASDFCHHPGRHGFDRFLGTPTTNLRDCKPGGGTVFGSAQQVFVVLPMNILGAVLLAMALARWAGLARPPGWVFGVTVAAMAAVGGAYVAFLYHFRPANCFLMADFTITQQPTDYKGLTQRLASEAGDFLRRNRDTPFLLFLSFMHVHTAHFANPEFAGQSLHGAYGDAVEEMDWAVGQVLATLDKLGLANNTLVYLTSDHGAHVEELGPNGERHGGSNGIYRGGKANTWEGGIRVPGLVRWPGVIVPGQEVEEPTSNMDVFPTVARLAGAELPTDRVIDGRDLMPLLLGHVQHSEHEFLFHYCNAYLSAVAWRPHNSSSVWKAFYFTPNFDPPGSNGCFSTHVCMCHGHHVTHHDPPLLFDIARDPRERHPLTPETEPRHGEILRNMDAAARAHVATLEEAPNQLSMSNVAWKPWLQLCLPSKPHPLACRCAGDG
Put plainly: Estrone sulfatase activity in the uterus of treated rats. The series is classed as in vivo. As to the method: In this study, a last administration was performed 24 hours before the necropsy for E1S and E2 serum levels assays. The uteri were removed, freed of adjacent tissue, wet weighed and immediately deep frozen until the determination of sulfatase activity.
Estrone sulfatase activity was measured according to the method described by Purohit et al., with slight modifications. Briefly, uteri were thawed, weighed and homogenized. Aliquots of the supernatant were treated with dextran-coated charcoal and assayed for sulfatase. E1S activity was assessed after 30 min of incubation with 5 nM of ^3H-E1S and 20 μM of unlabelled E1S as substrate. Radioactivity was measured by LSC.
Estrone sulfatase activity was expressed as pmol/h/mg protein and reported as percentage of inhibition versus E1S.

Procedure for prepubescent female rats: These compounds were checked for residual estrogenic activity in vivo in the classical uterotrophic assay after 3-day administration by oral route in prepubescent female rats.
Prepubescent female rats were orally treated at 1 mg/rat/day for 3 days. On the day following the last treatment, uteri were removed and wet weight were recorded.
The results are expressed as % of stimulation of uterus weight in comparison with controls.

Consider `NS(=O)(=O)Oc1ccc2c(c1)S(=O)(=O)C(CC1CCCCCC1)=C2` [Ex 55, Sulfamic acid, 2-cycloheptylmethyl-benzothiophene-6-yl-1,1-dioxide ester], for which the “% stimulation of uterus weight in comparison with controls” value in the series with prepubescent female rats (prepubescent female rats, oral, 1 mg/rat/day for 3 days) is on record as 3%. Moreover, the “estrogenicity (in words)” value in the series on prepubescent female rats (summary of the uterotrophic assay) is given as “lack of estrogenicity”. Moreover, the “Estrone sulfatase activity in the uterus, percentage of inhibition versus E1S” value at estrone sulfatase (0.03 mg/kg/day p.o.) worked out at 19%; on estrone sulfatase (0.1 mg/kg/day p.o.), 64%; at estrone sulfatase (0.3 mg/kg/day p.o.), 96%; on estrone sulfatase (1 mg/kg/day p.o.), 97%.
